From patent publication US8431565B2 (priority 2007, dated 2013) come the findings set out here.

Structures are written as SMILES.

This test concerns the target T1, rat CB2 receptor (rCB2) (Rattus norvegicus, UniProt Q9QZN9).
T1 sequence (Q9QZN9 1-360): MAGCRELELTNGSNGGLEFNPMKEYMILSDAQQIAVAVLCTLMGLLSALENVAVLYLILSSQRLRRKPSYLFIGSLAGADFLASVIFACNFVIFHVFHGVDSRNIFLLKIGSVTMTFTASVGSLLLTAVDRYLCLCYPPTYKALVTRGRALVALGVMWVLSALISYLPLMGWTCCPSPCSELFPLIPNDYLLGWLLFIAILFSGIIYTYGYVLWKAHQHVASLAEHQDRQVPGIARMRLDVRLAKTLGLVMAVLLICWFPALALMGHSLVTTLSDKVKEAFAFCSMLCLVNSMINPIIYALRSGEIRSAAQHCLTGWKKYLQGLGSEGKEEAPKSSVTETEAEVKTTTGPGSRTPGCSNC
With `CNC(=O)[C@@H](NC(=O)c1nc(-c2ccc(-c3ccccc3)cc2)n2c1CN(C)CC2)C(C)(C)C` [Compound 265, (S)-3-(biphenyl-4-yl)-N-(3,3-dimethyl-1-(methylamino)-1-oxobutan-2-yl)-7-methyl-5,6,7,8-tetrahydroimidazo[1,5-a]pyrazine-1-carboxamide], the 50% effective concentration (EC50) was 10 to 100 nM.

`CNC(=O)[C@@H](NC(=O)c1nc(-c2cccc(C(F)(F)F)c2)n2c1CN(C)CCC2)C(C)(C)C` [Compound 438, (S)-N-(3,3-dimethyl-1-(methylamino)-1-oxobutan-2-yl)-8-methyl-3-(3-(trifluoromethyl)phenyl)-6,7,8,9-tetrahydro-5H-imidazo[1,5-a][1,4]diazepine-1-carboxamide] had a concentration giving a half-maximal response (EC50) of 10 to 100 nM.

The molecule `CC(C)CN1CCn2c(-c3ccccc3)nc(C(=O)N[C@@H](CO)C(C)(C)C)c2C1` [Compound 68, (R)-N-(1-hydroxy-3,3-dimethylbutan-2-yl)-7-isobutyl-3-phenyl-5,6,7,8-tetrahydroimidazo[1,5-a]pyrazine-1-carboxamide] had a concentration giving a half-maximal response (EC50) of 0.1 to 10 nM.

For `CNC(=O)[C@@H](NC(=O)c1nc(-c2ccc(Cl)cc2F)n2c1CN(C)CC2)C(C)(C)C` [Compound 241, (S)-3-(4-chloro-2-fluorophenyl)-N-(3,3-dimethyl-1-(methylamino)-1-oxobutan-2-yl)-7-methyl-5,6,7,8-tetrahydroimidazo[1,5-a]pyrazine-1-carboxamide], the concentration for a half-maximal effect (EC50) fell in the range of 0.1 to 10 nM.

`CNC(=O)[C@@H](NC(=O)c1nc(-c2ccccc2)n2c1CN(S(=O)(=O)CC(C)C)CC2)C(C)(C)C` [Compound 95, (S)-N-(3,3-dimethyl-1-(methylamino)-1-oxobutan-2-yl)-7-(isobutylsulfonyl)-3-phenyl-5,6,7,8-tetrahydroimidazo[1,5-a]pyrazine-1-carboxamide] returned a 50% effective concentration (EC50) of 10 to 100 nM.

`Cc1ccc(-c2nc(C(=O)N[C@H](c3nc(C)no3)C(C)(C)C)c3n2CCCN(C(C)C)C3)c(F)c1` [Compound 523, (S)-N-(2,2-dimethyl-1-(3-methyl-1,2,4-oxadiazol-5-yl)propyl)-3-(2-fluoro-4-methylphenyl)-8-isopropyl-6,7,8,9-tetrahydro-5H-imidazo[1,5-a][1,4]diazepine-1-carboxamide] came in with an EC50 of 10 to 100 nM.

For the molecule `CNC(=O)[C@@H](NC(=O)c1nc(CCCC2CCCC2)n2c1CN(C)CCC2)C(C)(C)C` [Compound 494, (S)-3-(3-cyclopentylpropyl)-N-(3,3-dimethyl-1-(methylamino)-1-oxobutan-2-yl)-8-methyl-6,7,8,9-tetrahydro-5H-imidazo[1,5-a][1,4]diazepine-1-carboxamide], the EC50 was in the range of 10 to 100 nM.

Consider `COC(=O)[C@@H](NC(=O)c1nc(-c2ccc(C)cc2F)n2c1CNCCC2)C(C)(C)C` [Compound 466], for which the EC50 lay in the range of 10 to 100 nM.

`CNC(=O)[C@@H](NC(=O)c1nc(-c2ccc(Cl)cc2)n2c1CN(C)CC2)C(C)(C)C` [Compound 49, (S)-3-(4-chlorophenyl)-N-(3,3-dimethyl-1-(methylamino)-1-oxobutan-2-yl)-7-methyl-5,6,7,8-tetrahydroimidazo[1,5-a]pyrazine-1-carboxamide] displayed a half-maximal effective concentration (EC50) of 10 to 100 nM.

In turn, `CC(C)CN1CCn2c(-c3ccccc3)nc(C(=O)N[C@H](C)C3CCCCC3)c2C1` [Compound 163, (R)-N-(1-cyclohexylethyl)-7-isobutyl-3-phenyl-5,6,7,8-tetrahydroimidazo[1,5-a]pyrazine-1-carboxamide] displayed a concentration giving a half-maximal response (EC50) of 0.1 to 10 nM.

For the molecule `CNC(=O)[C@@H](NC(=O)c1nc(C2=CCC(C)CC2)n2c1CN(C)CC2)C(C)(C)C` (stereo partly drawn) [Compound 270, N-((S)-3,3-dimethyl-1-(methylamino)-1-oxobutan-2-yl)-7-methyl-3-(4-methylcyclohex-1-enyl)-5,6,7,8-tetrahydroimidazo[1,5-a]pyrazine-1-carboxamide], the EC50 is 10 to 100 nM.

For the molecule `CC(C)(C)C(=O)N1CCn2c(-c3ccccc3)nc(C(=O)NC3C4(C)CCC(C4)C3(C)C)c2C1` (centres unmarked) [Compound 123, 3-phenyl-7-pivaolyl-N-(1,3,3-trimethylbicyclo[2.2.1]heptan-2-yl)-5,6,7,8-tetrahydroimidazo[1,5-a]pyrazine-1-carboxamide], the half-maximal effective concentration (EC50) lay within 10 to 100 nM.

Molecule `C[C@@H](NC(=O)c1nc(-c2ccccc2)n2c1CN(C(=O)C1CC1)CC2)C1CCCCC1` [Compound 132, (R)-N-(1-cyclohexylethyl)-7-(cyclopropanecarbonyl)-3-phenyl-5,6,7,8-tetrahydroimidazo[1,5-a]pyrazine-1-carboxamide] came in with a half-maximal effective concentration (EC50) of 10 to 100 nM.

`CC(C)CCNC(=O)c1nc(-c2ccc(Cl)cc2)n2c1CN(CC(C)C)CC2` [Compound 157, 3-(4-chlorophenyl)-7-isobutyl-N-isopentyl-5,6,7,8-tetrahydroimidazo[1,5-a]pyrazine-1-carboxamide] returned an EC50 of 10 to 100 nM.

In turn, `CNC(=O)[C@@H](NC(=O)c1nc(-c2ccc(C(C)(C)C)cc2)n2c1CN(C)CCC2)C(C)(C)C` [Compound 414, (S)-3-(4-tert-butylphenyl)-N-(3,3-dimethyl-1-(methylamino)-1-oxobutan-2-yl)-8-methyl-6,7,8,9-tetrahydro-5H-imidazo[1,5-a][1,4]diazepine-1-carboxamide] showed an EC50 of 10 to 100 nM.

Turning to `Cc1ccc(-c2nc(C(=O)N[C@H](c3nc(C)no3)C(C)(C)C)c3n2CCCN(C(=O)OC(C)(C)C)C3)c(F)c1` [Compound 518, (S)-tert-butyl 1-(2,2-dimethyl-1-(3-methyl-1,2,4-oxadiazol-5-yl)propylcarbamoyl)-3-(2-fluoro-4-methylphenyl)-6,7-dihydro-5H-imidazo[1,5-a][1,4]diazepine-8(9H)-carboxylate], the EC50 lay in the range of 10 to 100 nM.

`CC(C)CCNC(=O)c1nc(-c2ccc(Cl)cc2)n2c1CN(C(=O)C1CC1)CC2` [Compound 131, 3-(4-chlorophenyl)-7-(cyclopropanecarbonyl)-N-isopentyl-5,6,7,8-tetrahydroimidazo[1,5-a]pyrazine-1-carboxamide] yielded an EC50 of 10 to 100 nM.

For `Cc1noc([C@@H](NC(=O)c2nc(-c3ccccc3)n3c2CN(C2CC2)CC3)C(C)(C)C)n1` [Compound 198, (S)-7-cyclopropyl-N-(2,2-dimethyl-1-(3-methyl-1,2,4-oxadiazol-5-yl)propyl)-3-phenyl-5,6,7,8-tetrahydroimidazo[1,5-a]pyrazine-1-carboxamide], the concentration for a half-maximal effect (EC50) is 0.1 to 10 nM.

`CNC(=O)[C@@H](NC(=O)c1nc(-c2ccccc2)n2c1CN(C(=O)C(C)C)CC2)C(C)(C)C` [Compound 191, (S)-N-(3,3-dimethyl-1-(methylamino)-1-oxobutan-2-yl)-7-isobutyryl-3-phenyl-5,6,7,8-tetrahydroimidazo[1,5-a]pyrazine-1-carboxamide] had an EC50 of 10 to 100 nM.

For the molecule `CC(C)CN1CCn2c(-c3ccccc3)nc(C(=O)N[C@H](C)C(C)(C)C)c2C1` [Compound 52, (R)-N-(3,3-dimethylbutan-2-yl)-7-isobutyl-3-phenyl-5,6,7,8-tetrahydrimidazo[1,5-a]pyrazine-1-carboxamide], the EC50 was 0.1 to 10 nM.

Regarding `CC(C)(C)OC(=O)N1CCn2c(-c3ccccc3)nc(C(=O)NC3C4(C)CCC(C4)C3(C)C)c2C1` (centres unmarked) [Compound 30, tert-butyl 3-phenyl-1-(1,3,3-trimethylbicyclo[2.2.1]heptan-2-ylcarbamoyl)-5,6-dihydroimidazo[1,5-a]pyrazine-7(8H)-carboxylate], the EC50 was in the range of 10 to 100 nM.

With `CC(C)(C)CNC(=O)c1nc(-c2ccccc2)n2c1CN(S(=O)(=O)c1ccc(F)cc1)CC2` [Compound 103, 7-(4-fluorophenylsulfonyl)-N-neopentyl-3-phenyl-5,6,7,8-tetrahydroimidazo[1,5-a]pyrazine-1-carboxamide], the EC50 was in the range of 10 to 100 nM.

Regarding `CC(C)CN1CCn2c(-c3ccccc3)nc(C(=O)Nc3ccccc3)c2C1` [Compound 150, 7-isobutyl-N,3-diphenyl-5,6,7,8-tetrahydroimidazo[1,5-a]pyrazine-1-carboxamide], the EC50 lay within 10 to 100 nM.

Take `CC(C)CN1CCn2c(-c3ccc(Cl)cc3)nc(C(=O)N[C@H](CO)C(C)(C)C)c2C1` [Compound 160, (S)-3-(4-chlorophenyl)-N-(1-hydroxy-3,3-dimethylbutan-2-yl)-7-isobutyl-5,6,7,8-tetrahydroimidazo[1,5-a]pyrazine-1-carboxamide]: the concentration for a half-maximal effect (EC50) was 0.1 to 10 nM.

`CNC(=O)[C@H](CC(C)C)NC(=O)c1nc(-c2ccc(Cl)cc2F)n2c1CN(C)CC2` [Compound 276, (S)-3-(4-chloro-2-fluorophenyl)-7-methyl-N-(4-methyl-1-(methylamino)-1-oxopentan-2-yl)-5,6,7,8-tetrahydroimidazo[1,5-a]pyrazine-1-carboxamide] showed a 50% effective concentration (EC50) of 10 to 100 nM.

For `COC(=O)N1CCn2c(-c3ccc(Cl)cc3)nc(C(=O)NCCC(C)C)c2C1` [Compound 183, methyl 3-(4-chlorophenyl)-1-(isopentylcarbamoyl)-5,6-dihydroimidazol[1,5-a]pyrazine-7(8H)-carboxylate], the EC50 was 10 to 100 nM.

Molecule `CNC(=O)[C@@H](NC(=O)c1nc(-c2ccccc2)n2c1CN(CCC(C)(C)C)CC2)C(C)(C)C` [Compound 54, (S)-N-(3,3-dimethyl-1-(methylamino)-1-oxobutan-2-yl)-7-(3,3-dimethylbutyl)-3-phenyl-5,6,7,8-tetrahydroimidazo[1,5-a]pyrazine-1-carboxamide] gave an EC50 of 10 to 100 nM.

Take `CNC(=O)[C@@H](NC(=O)c1nc(-c2ccc(Cl)cc2F)n2c1CN(C(=O)OC(C)(C)C)CCC2)C(C)(C)C` [Compound 313]: the EC50 lay in the range of 10 to 100 nM.

With `CCN1CCn2c(-c3ccccc3)nc(C(=O)NC3C4(C)CCC(C4)C3(C)C)c2C1` (centres unmarked) [Compound 144, 7-ethyl-3-phenyl-N-(1,3,3-trimethylbicyclo[2.2.1]heptan-2-yl)-5,6,7,8-tetrahydroimidazo[1,5-a]pyrazine-1-carboxamide], the EC50 lay within 0.1 to 10 nM.

A word on the EC50: it is the concentration that produces a half-maximal response.
